Data as given in US7803804B2, “Substituted pyrazines for use in the treatment of inflammatory or allergic conditions” (Novartis AG, priority 2005, dated 2010).

Biological target: T1, epithelial sodium channel (ENaC) (Homo sapiens, UniProt P37088+P51168+P51170)
T1 construct: host or cells: primary human bronchial epithelial cells (HBECs), differentiated at air-liquid interface
T1 sequence (P37088 1-669): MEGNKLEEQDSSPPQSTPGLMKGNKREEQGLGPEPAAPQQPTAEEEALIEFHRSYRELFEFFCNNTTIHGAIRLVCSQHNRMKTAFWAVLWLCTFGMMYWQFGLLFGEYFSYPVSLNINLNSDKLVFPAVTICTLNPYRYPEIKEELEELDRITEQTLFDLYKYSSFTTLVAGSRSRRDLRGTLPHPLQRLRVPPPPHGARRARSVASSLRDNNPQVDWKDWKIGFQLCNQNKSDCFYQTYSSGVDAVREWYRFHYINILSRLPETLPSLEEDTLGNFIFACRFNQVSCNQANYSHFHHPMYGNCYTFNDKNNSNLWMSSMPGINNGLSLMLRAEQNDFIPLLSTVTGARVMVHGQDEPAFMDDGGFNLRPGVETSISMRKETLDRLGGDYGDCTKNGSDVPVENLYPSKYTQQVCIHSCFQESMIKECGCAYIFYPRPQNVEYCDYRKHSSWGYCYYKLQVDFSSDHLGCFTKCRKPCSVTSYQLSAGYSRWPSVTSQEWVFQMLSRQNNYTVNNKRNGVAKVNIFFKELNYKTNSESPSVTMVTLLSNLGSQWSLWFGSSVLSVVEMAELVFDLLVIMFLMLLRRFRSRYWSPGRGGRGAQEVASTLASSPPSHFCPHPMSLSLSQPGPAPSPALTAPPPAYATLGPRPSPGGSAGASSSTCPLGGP
T1 sequence (P51168 1-640): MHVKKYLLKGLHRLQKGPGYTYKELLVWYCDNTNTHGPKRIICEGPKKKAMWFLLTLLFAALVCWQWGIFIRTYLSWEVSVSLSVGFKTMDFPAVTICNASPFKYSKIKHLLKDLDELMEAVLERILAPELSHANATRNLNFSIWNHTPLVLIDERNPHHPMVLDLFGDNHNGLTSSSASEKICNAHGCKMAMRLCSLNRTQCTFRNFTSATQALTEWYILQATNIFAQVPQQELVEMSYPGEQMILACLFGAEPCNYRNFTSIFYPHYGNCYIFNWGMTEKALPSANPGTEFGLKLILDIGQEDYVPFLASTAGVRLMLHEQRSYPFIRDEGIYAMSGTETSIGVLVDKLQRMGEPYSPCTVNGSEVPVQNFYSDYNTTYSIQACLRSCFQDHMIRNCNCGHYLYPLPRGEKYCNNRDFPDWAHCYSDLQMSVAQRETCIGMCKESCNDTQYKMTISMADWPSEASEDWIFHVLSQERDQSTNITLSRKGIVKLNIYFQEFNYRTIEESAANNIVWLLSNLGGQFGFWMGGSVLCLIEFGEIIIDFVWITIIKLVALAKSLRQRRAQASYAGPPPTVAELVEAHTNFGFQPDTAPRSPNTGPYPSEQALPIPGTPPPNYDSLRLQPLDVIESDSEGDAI
T1 sequence (P51170 1-649): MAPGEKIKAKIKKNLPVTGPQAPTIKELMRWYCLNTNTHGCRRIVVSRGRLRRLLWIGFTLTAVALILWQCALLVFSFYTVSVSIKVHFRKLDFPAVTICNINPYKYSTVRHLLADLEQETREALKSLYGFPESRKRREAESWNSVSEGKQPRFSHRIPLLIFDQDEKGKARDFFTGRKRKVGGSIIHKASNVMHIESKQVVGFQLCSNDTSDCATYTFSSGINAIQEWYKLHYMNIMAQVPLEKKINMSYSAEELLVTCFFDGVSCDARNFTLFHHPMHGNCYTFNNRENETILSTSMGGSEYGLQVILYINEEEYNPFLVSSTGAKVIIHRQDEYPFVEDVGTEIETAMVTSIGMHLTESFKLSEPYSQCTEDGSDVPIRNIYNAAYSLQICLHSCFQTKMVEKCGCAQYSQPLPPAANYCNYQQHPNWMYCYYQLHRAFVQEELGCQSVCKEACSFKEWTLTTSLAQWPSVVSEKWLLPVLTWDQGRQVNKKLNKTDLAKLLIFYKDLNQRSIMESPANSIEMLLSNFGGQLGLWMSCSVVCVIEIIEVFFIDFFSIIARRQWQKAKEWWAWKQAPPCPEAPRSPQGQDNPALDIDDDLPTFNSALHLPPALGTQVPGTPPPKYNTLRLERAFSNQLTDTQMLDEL
Assay: Short circuit current (ISC) measurements in human bronchial epithelial cells, inhibition of the amiloride-sensitive ISC
Type: cell-based
Settings: air-liquid interface culture, Ussing chamber, compound added to the apical chamber
Protocol: Compounds of formula (I) and their pharmaceutically acceptable salts, hereinafter referred to alternatively as “agents of the invention”, are useful as pharmaceuticals. In particular, the compounds have good ENaC blocker activity and may be tested in the following assays.
Human Bronchial Epithelial cells (HBECS) (Cambrex) were cultured under air-liquid interface conditions to provide a well differentiated mucociliary phenotype.
HBECs were cultured using a modification of the method described by Gray and colleagues (Gray et al., 1996). […]
Snapwell inserts were mounted in Vertical Diffusion Chambers (Costar) and were bathed with continuously gassed Ringer solution (5% CO2 in O2; pH 7.4) maintained at 37° C. containing (in mM): 120 NaCl, 25 NaHCO3, 3.3 KH2PO4, 0.8 K2HPO4, 1.2 CaCl2, 1.2 MgCl2, and 10 glucose. […] RT was measured by applying a 1- or 2-mV pulse at 30-s intervals and calculating RT by Ohm's law. Data were recorded using a PowerLab workstation (ADInstruments).
Test compounds were prepared as a 10 mM stock solution in DMSO (95%). […] At the completion of the concentration-response experiment, amiloride (10 μM) was added into the apical chamber to enable the total amiloride-sensitive current to be measured. […]
Results are expressed as the mean % inhibition of the amiloride-sensitive ISC. […] Cell inserts were typically run in duplicate and the IC50 calculated on the mean % inhibition data.

Structure (SMILES) | IC50
N=C(NCC1CCC(CNC(=N)NC(=O)c2nc(Cl)c(N)nc2N)CC1)NC(=O)c1nc(Cl)c(N)nc1N (centres unmarked) [Example 2] | 5.7 nM
N=C(NC(=O)c1nc(Cl)c(N)nc1N)N[C@H]1CC[C@H](NC(=N)NC(=O)c2nc(Cl)c(N)nc2N)CC1 [Example 5] | 0.2 nM
